For this test, the target named is T1, human granzyme B (Homo sapiens, UniProt P10144).
T1 construct: the first amino acid of mature granzyme B; hexa-histidine tag (N, cleaved yes); Factor Xa recognition site Ile-Glu-Gly-Arg (N, cleaved yes); honeybee melittin secretion signal (N, cleaved yes); made in house; host or cells: Sf9 insect cells (baculovirus, Bac-to-Bac)
In words: Fluorogenic assay for granzyme B (Ac-IEPD-AMC substrate). Format: biochemical. The conditions noted are these: recombinant granzyme B, substrate Ac-IEPD-AMC 10 μM, pH 7.5, 25° C.; read-out: Gzm B Ki. The source says: Plasmids pMelBac and the TA Cloning Kit (pCR2.1) were purchased from Invitrogen (Carlsbad, Calif.). The Bac-to-Bac Baculovirus Expression System and all cell culture supplies were from Life Technologies (Gaithersburg, Md.). The human granzyme B protease has been identified and is known in the art. See, for example, Poe, et al., J. Biol. Chem. 266, 98-103. A vector was generated for secreted protein expression in the Bac-to-Bac system. The honeybee melittin secretion signal was amplified from pMelBac by PCR with primers 5′-GTGT AGATCTATGAAATTCTTAGTCAACG-3′ and 5′-TTCAGCAGAGTCGACTCCAAG-3′. The amplified product contained a BglII site upstream of the melittin secretion signal and spanned the multiple cloning site of the vector. The fragment was digested with BglII and EcoRI and subcloned into BamHI and EcoRI digested pFastBac. The resulting vector was designated pSecBac. Activatable tagged human granzyme B was cloned into pSecBac in two sequential steps. Firstly, mature granzyme B was amplified by PCR with primers 5′-GGATCC ATC GAA GGT CGT ATC ATC GGAGGACATGAGGCC-3′ and 5′-AAGCTTTTAGTAGCGCTTCATGGTCTTCTTTATCC-3′ and cloned into pCR2.1. In the sense primer, the bold type sequence coding for the Factor Xa recognition site, Ile-Glu-Gly-Arg, was inserted upstream of isoleucine 21 (referred to as ILE 16 in this paper using the numbering scheme for this family of serine proteases is traditionally based on the zymogen, chymotrypsinogen), the first amino acid of mature granzyme B. Secondly, hexa-histidine tagged, activatable granzyme B was amplified from the granzyme B/pCR2.1 clone by PCR using primers 5′-GGAAGATCTCATCATCATCATCATCATGGATCCATCGAAGGTCGTATC-3′ and 5′-CCT GAA TTC TTA GTA GCG TIT CAT GGT CTT CTT TAT CC-3′. The amplified product contained a Bali site upstream of the hex-histidine tag and contained the Factor Xa recognition sequence. This fragment was digested with Bali and ECOR and subcloned into BamHI and EcoRI digested pSecBac. The completed vector generated a recombinant baculovirus in Gibco BRL's Bac-to-Bac system, which would produce a secreted, 6-histidine tagged granzyme B. For protein expression, sf9 cells were grown to a density of 1.5×10^6 cells ml^−1 in Grace's medium (Cat. 11605-094) supplemented with 10% fetal calf serum and penicillin-streptomycin-glutamine (Cat. 10378-024). Prior to the addition of virus, cells were centrifuged at 1000×g for 15 minutes and resuspended to the same density in fresh growth medium containing recombinant viral stock and SP Sepharose beads (4 ml resin per liter of culture). After 72 hours of induction at 27° C., the resin was collected in a 50 micron Nylon mesh (PGC Scientifics), extensively washed with 50 mM Mes.NaOH, 0.3 M Na Cl, pH 6.6 and poured onto a column. The protein was eluted using a linear gradient (0.3 to 1.0 M) of NaCl. Fractions containing granzyme B activity were identified, combined and concentrated and then diluted in 20 mM Tris.HCl, pH 8.0. The sample was readjusted to a final pH 8.0, CaCl2 (3 mM final concentration) and factor Xa (Pharmacia, 10 units per mg of protein) were added, and incubated for 18 hours at room temperature to generate active granzyme B. Under these conditions, complete cleavage is achieved. The recombinant granzyme B was purified from the cleavage mixture using a 1 ml HiTrap SP column (Pharmacia). The yield can be as much as 4-5 mg of purified granzyme B per liter of culture. Mass spectral analysis identifies one major peak at 27,466 Da (other components of 27,320 Da and 26,630 Da were also consistently observed). Since the combined mass of the 227-amino acids defined by sequence analysis only accounts for 25,511.58 Da, we concluded that preparations of recombinant granzyme B purified with this method are more homogenous and less glycosylated than preparations of native granzyme B purified from NK cell granules. […]

As a reminder, the Ki is the equilibrium dissociation constant of an inhibitor or competing ligand from its target.

T1 sequence (P10144 21-247): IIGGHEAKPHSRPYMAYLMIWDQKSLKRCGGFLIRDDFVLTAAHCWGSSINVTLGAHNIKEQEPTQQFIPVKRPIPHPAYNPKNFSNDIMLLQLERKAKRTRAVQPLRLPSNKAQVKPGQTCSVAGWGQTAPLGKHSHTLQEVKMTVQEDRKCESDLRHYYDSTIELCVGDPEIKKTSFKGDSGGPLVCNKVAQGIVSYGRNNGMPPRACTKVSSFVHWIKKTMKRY

Turning to `CC[C@H](C)[C@H](NC(C)=O)C(=O)N[C@H]1CCc2cccc3c2N(C1=O)[C@H](C(=O)NCc1nn[nH]n1)C3` [Example 1, (2S,5S)-5-[(N-acetyl-L-isoleucyl)amino]-4-oxo-N-(1H-tetraazol-5-ylmethyl)-1,2,4,5,6,7-hexahydroazepino[3,2,1-hi]indole-2-carboxamide], the Ki is 0.074 µM. As to `CC[C@H](C)[C@H](NC(C)=O)C(=O)N[C@H]1CCc2cccc3c2N(C1=O)[C@H](C(=O)NCc1c[nH]nn1)C3` [Example 2, (2S,5S)-5-[(N-acetyl-L-isoleucyl)amino]-4-oxo-N-(1H-1,2,3-triazol-4-ylmethyl)-1,2,4,5,6,7-hexahydroazepino[3,2,1-hi]indole-2-carboxamide], the Ki was 0.038 µM.

Turning to `CC[C@H](C)[C@H](NC(=O)Cc1ccccc1)C(=O)N[C@H]1CCc2cccc3c2N(C1=O)[C@H](C(=O)NCc1c[nH]nn1)C3` [Example 4, (2S,5S)-4-oxo-5-{[N-(phenylacetyl)-L-isoleucyl]amino}-N-(1H-1,2,3-triazol-4-ylmethyl)-1,2,4,5,6,7-hexahydroazepino[3,2,1-hi]indole-2-carboxamide], the Ki came out at 0.013 µM. Consider `CC[C@H](C)[C@H](NC(C)=O)C(=O)N[C@H]1CCc2cccc3c2N(C1=O)[C@H](C(=O)NCc1cn2cccnc2n1)C3` [Example 19], for which the Ki was 0.788 µM. As for `CC(C)[C@@H](C(=O)N[C@H]1CCc2cccc3c2N(C1=O)[C@H](C(=O)NCc1nn[nH]n1)C3)c1ccccn1` [Example 21], the Ki was determined as 0.41 µM.

In the case of `CC[C@H](C)[C@H](NC(=O)Cc1cccc(F)c1F)C(=O)N[C@H]1CCc2cccc3c2N(C1=O)[C@H](C(=O)NCc1nn[nH]n1)C3` [Example 24], the Ki was determined as 0.036 µM.

As to `CC[C@H](C)[C@H](NC(=O)CN(C)C)C(=O)N[C@H]1CCc2cccc3c2N(C1=O)[C@H](C(=O)NCc1nn[nH]n1)C3` [Example 25], the Ki was 0.203 µM. The value for `CC[C@H](C)[C@H](NC(=O)Cc1csc2ccccc12)C(=O)N[C@H]1CCc2cccc3c2N(C1=O)[C@H](C(=O)NCc1nn[nH]n1)C3` [Example 26] was 0.017 µM; that for `CC[C@H](C)[C@H](NC(=O)CN(C)C)C(=O)N[C@H]1CCc2cccc3c2N(C1=O)[C@H](C(=O)NCc1c[nH]nn1)C3` [Example 27] was 0.045 µM. With `CC[C@H](C)[C@H](NC(=O)Cc1csc2ccccc12)C(=O)N[C@H]1CCc2cccc3c2N(C1=O)[C@H](C(=O)NCc1c[nH]nn1)C3` [Example 28], the Ki was 0.007 µM. `CC(=O)N1CSC(C)(C)[C@H]1C(=O)N[C@H]1CCc2cccc3c2N(C1=O)[C@H](C(=O)NCc1c[nH]nn1)C3` [Example 29]: the Ki stood at 3.88 µM. Take `CC[C@H](C)[C@@H](C(=O)N[C@H]1CCc2cccc3c2N(C1=O)[C@H](C(=O)NCc1c[nH]nn1)C3)N1CCCC1=O` [Example 30]: the Ki was 0.112 µM. The value for `O=C(CC1CCCC1)N[C@H]1CCc2cccc3c2N(C1=O)[C@H](C(=O)NCc1c[nH]nn1)C3` [Example 31] was 1.84 µM. Take `CC(=O)N[C@H](C(=O)N[C@H]1CCc2cccc3c2N(C1=O)[C@H](C(=O)NCc1c[nH]nn1)C3)C1CC1` [Example 32]: the Ki was 1.02 µM. `CC(=O)N[C@H](C(=O)N[C@H]1CCc2cccc3c2N(C1=O)[C@H](C(=O)NCc1c[nH]nn1)C3)C1CCCC1` [Example 33]: the Ki was found to be 0.071 µM.

(Values after patent publication US20060019945A1, “Granzyme b inhibitors” (priority 2002, published 2006).)
